pKd: −log10 of the molar value. Entries after “also recorded” stand apart in the source; their conditions may differ.
Tests used:
[1] = test system: SK-MEL-2 human melanoma xenograft; experiment: SK-MEL-2 human melanoma xenograft in athymic mice; type: in vivo
Procedure: Five- to 6-week old athymic mice (CD-1 nu/nu females), used for human tumor xenografts, were obtained from Harlan Laboratories (Indianapolis, Ind.). Animals were housed in specific pathogen-free conditions, according to the guidelines of the Association for Assessment and Accreditation of Laboratory Animal Care International (AAALAC International). Test animals were provided pelleted food and water ad libitum and kept in a room with conditioned ventilation (HVAC), temperature (22°±2° C.), relative humidity (55%±15%), and photoperiod (12 hr). All studies were carried out with approved institutional animal care and use protocols.
The tumor inhibitory activity of the CR011-MMAE immunoconjugate was measured in an anti-tumor xenograft model using athymic mice, according to published methods (see Geran et al., Cancer Chemother. Rep. 3:1-104 (1972)). […] When tumors became established (10-20 days), the animals were pair-matched into groups (n=6 mice/group), and treatment was administered by intravenous injection (tail vein).
The SK-MEL-2 human melanoma (ATCC #HTB-68) was derived from a metastatic site (skin of thigh) of a person with malignant melanoma, and the SK− MEL-5 human melanoma (ATCC #HTB-70) was derived from a metastatic site (axillary lymph node) of a person with malignant melanoma (see Fogh et al., J. Natl. Cancer Inst. 59: 221-226 (1977)). Both cell lines were obtained from the American Type Culture Collection.
The effects of treatment were monitored by repetitive tumor measurements across 2 diameters with Vernier calipers; tumor size (in mg) was calculated using a standard formula, (W^2×L)/2, assuming a specific gravity of 1.0. Tumor size and body weights were assessed twice weekly. Mice were examined daily, however, and moribund animals were humanely euthanized if clinical indications of excessive pain or distress were noted (i.e., prostration, hunched posture, paralysis/paresis, distended abdomen, ulcerations, abscesses, seizures, and/or hemorrhages) Animals with tumors exceeding 2,000 mg were removed from the study and euthanized humanely.
No apparent or statistically significant anti-tumor effects were observed. […] In preliminary studies, tumor regression was complete and was not followed by regrowth of the tumor despite lengthy observation periods (up to 200 days).

[2] = test system: XF-498; experiment: Clonogenic assay with CR011-vcMMAE; type: cell-based, human
Procedure: (§1) Cells were plated in 96-well plates and allowed to recover overnight. […] The cells were then transferred into 6-well plates and allowed to form colonies. Colonies were stained with Giemsa stain (Sigma) and counted. The surviving cell fractions were calculated based upon the ratio of the treated sample and the untreated control. The results were expressed as a percentage of control using GraphPad Prism Version 4 software.

[3] = test system: SNB-78; experiment: Clonogenic assay with CR011-vcMMAE; type: cell-based, human
Procedure: as §1

[4] = test system: SK-Mel-2 cells; experiment: Cell cycle analysis (BrdU / propidium iodide flow cytometry); type: cell-based, human
Procedure: (§2) Briefly, cells were pulsed at the indicated times with 30 μM of bromodeoxyuridine (BrdU, Sigma) for 30 min, harvested, fixed and permeabilized in methanol. Nascent DNA synthesis was detected by anti-bromodeoxyuridine-FITC (BD Biosciences, San Jose, Calif.) staining. Total DNA content was detected using propidium iodide (PI, Sigma). For apoptosis analysis, cells were treated as above and labeled with Annexin V-FITC followed by propidium iodide exclusion using the Annexin V-FITC Apoptosis Detection kit I (BD PharMingen, San Diego, Calif.) according to the manufacturer's protocols. Flow cytometry (as described in the previous Example) was used to assay both cell cycle and apoptosis studies.
(§3) DNA synthesis and cell cycle progression were determined by flow cytometry (Table 52).

[5] = test system: TK-10 control cells; experiment: as above; type: cell-based, human
Procedure: as §2, §3

[6] = biological target: T1, GPNMB (Homo sapiens, UniProt Q14956); experiment: BiaCore 2000 analysis of hybridoma supernatants binding to GPNMB
T1 construct: we cloned the human CG56972 extracellular domain (ECD; aa 23-480); made in house; host or cells: HEK 293 cells
T1 sequence (Q14956 23-492): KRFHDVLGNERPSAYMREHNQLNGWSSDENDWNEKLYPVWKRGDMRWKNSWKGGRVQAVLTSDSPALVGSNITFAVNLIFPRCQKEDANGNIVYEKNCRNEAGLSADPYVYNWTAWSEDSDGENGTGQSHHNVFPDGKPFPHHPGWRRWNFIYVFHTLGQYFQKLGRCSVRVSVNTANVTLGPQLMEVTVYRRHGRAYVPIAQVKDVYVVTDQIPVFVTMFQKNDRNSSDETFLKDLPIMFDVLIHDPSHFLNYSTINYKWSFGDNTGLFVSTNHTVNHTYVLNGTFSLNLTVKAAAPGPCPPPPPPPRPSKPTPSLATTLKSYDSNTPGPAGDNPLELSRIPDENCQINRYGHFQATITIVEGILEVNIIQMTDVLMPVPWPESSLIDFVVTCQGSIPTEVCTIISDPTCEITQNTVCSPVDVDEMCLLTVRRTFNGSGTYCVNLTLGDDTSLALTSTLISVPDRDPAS
Procedure: Certain Hybridoma cell supernatants (29) were analyzed for binding to GPNMB by BiaCore® 2000 biosensor equipped with a research-grade CM5 sensor chip. A 1:25 dilution of cell supernatant was passed over a protein A surface for 5 min followed by washing the surface for 10 mins. Subsequently, GPNMB was injected for 90 sec. over the surface at a concentration of 880 nM followed by dissociation. Double-referenced binding data were obtained by subtracting the signal from a control flow cell and subtracting the baseline drift of a buffer injected just prior to the antigen injection. GPNMB binding data for each mAb was normalized for the amount of mAb captured on each surface. Normalized, drift corrected responses were also measured. The sensorgrams were fit to a simple 1:1 kinetic model.

[7] = mAb captured on protein A, GPNMB at 880 nM, 1:1 kinetic model

**Q.** With “CR011-vcMMAE: CR011 conjugated to monomethyl auristatin E through a protease cleavable valine-citrulline linker; approx. 4 drugs per antibody” as the substance, how does the tumor size reached ([1]; 1 mg/kg single bolus dose, day 58) read?
**A.** ≥ 2,000 mg

**Q.** What about the “tumor response (in words)” value ([1]; 10 mg/kg single bolus dose) of the same substance?
**A.** complete regressions

**Q.** What about the “earliest significant treatment effects, time after treatment commenced” value ([1]; CR011-vcMMAE i.v. q4d×4, P≦0.014) of the same substance?
**A.** 4 days

**Q.** And the “anti-tumor effect (in words)” value ([1]; i.v., CR011-vcMMAE 20, 10, 5 or 2.5 mg/kg q4d×4, vinblastine […] q4d×4)?
**A.** tumors rapidly diminished in size for the majority of the test animals

**Q.** And the “treatment effects on gross examination” value ([1]; mouse, in vivo)?
**A.** no abnormal treatment effects

**Q.** And the “effects of treatment on body weight or weight gain” value ([1]; twice weekly body weight determinations)?
**A.** no observable or statistically significant effects

**Q.** What about the IC50 [2] of the same substance?
**A.** approximately 215 ng/mL

**Q.** And the IC50 [3]?
**A.** ~0.45 µg/mL

**Q.** What about the “decreased percentage of cells in G1 and S-phase vs untreated cells” value ([4]; 1000 ng/mL, 24 hrs) of the same substance?
**A.** 10%

**Q.** And the “reduced percentage of cells in G1 and S-phase” value ([4]; 1000 ng/mL, 48 hr)?
**A.** 11%

**Q.** What about the “% G1” value ([4]; SK-Mel-2, 24 hour, 100 ng/mL) of the same substance?
**A.** 56.0%

**Q.** What about the “% S-phase” value ([4]; SK-Mel-2, 24 hour, 100 ng/mL) of the same substance?
**A.** 26.9%

**Q.** What about the “% Sub-G1” value ([4]; SK-Mel-2, 24 hour, 100 ng/mL) of the same substance?
**A.** 0.2%

**Q.** What about the “% G1” value ([4]; SK-Mel-2, 24 hour, 1000 ng/mL) of the same substance?
**A.** 43.7%

**Q.** What about the “% S-phase” value ([4]; SK-Mel-2, 24 hour, 1000 ng/mL) of the same substance?
**A.** 20.0%

**Q.** What about the “effect on cycling of GPNMB-negative cells” value ([5]; 1000 ng/mL) of the same substance?
**A.** did not affect the cycling

**Q.** And the “% G1” value ([5]; TK-10, 24 hour, 100 ng/mL)?
**A.** 51.1%

**Q.** What about the “% S-phase” value ([5]; TK-10, 24 hour, 100 ng/mL) of the same substance?
**A.** 35.1%

**Q.** And the “% Sub-G1” value ([5]; TK-10, 24 hour, 100 ng/mL)?
**A.** 0.7%

**Q.** And the “% G1” value ([5]; TK-10, 24 hour, 1000 ng/mL)?
**A.** 52.6%

**Q.** What about the “% S-phase” value ([5]; TK-10, 24 hour, 1000 ng/mL) of the same substance?
**A.** 34.2%

**Q.** What about the “% Sub-G1” value ([5]; TK-10, 24 hour, 1000 ng/mL) of the same substance?
**A.** 0.8%

**Q.** With “CR011: fully human monoclonal antibody that specifically binds to GPNMB; VH SEQ ID NO: 20, VL SEQ ID NO: 29” as the substance, how does the “tumor growth inhibition by components of the immunoconjugate (in words)” value ([1]; doses identical to that contained in the intact immunoconjugate (5 mg/kg q4d×4)) read?
**A.** lack of responses; also recorded: lack of tumor growth inhibition

**Q.** And the “% G1” value ([4]; SK-Mel-2, 24 hour, 1000 ng/mL)?
**A.** 63.6%

**Q.** What about the “% G2/M” value ([4]; SK-Mel-2, 24 hour, 1000 ng/mL) of the same substance?
**A.** 6.4%

**Q.** And the “% S-phase” value ([4]; SK-Mel-2, 24 hour, 1000 ng/mL)?
**A.** 25.2%

**Q.** And the “% Sub-G1” value ([4]; SK-Mel-2, 24 hour, 1000 ng/mL)?
**A.** 0.5%

**Q.** What about the “% G1” value ([5]; TK-10, 24 hour, 1000 ng/mL) of the same substance?
**A.** 42.0%

**Q.** What about the “% G2/M” value ([5]; TK-10, 24 hour, 1000 ng/mL) of the same substance?
**A.** 6.3%

**Q.** What about the “% S-phase” value ([5]; TK-10, 24 hour, 1000 ng/mL) of the same substance?
**A.** 39.8%

**Q.** And the “% Sub-G1” value ([5]; TK-10, 24 hour, 1000 ng/mL)?
**A.** 0.3%

**Q.** And the “binding to GPNMB (in words)” value ([6]; BiaCore, 1:25 dilution of cell supernatant)?
**A.** strong binding

**Q.** And the pKd [6, 7]?
**A.** 7.28

**Q.** And the “ka” value [6, 7]?
**A.** 16524 M⁻¹ s⁻¹

**Q.** And the “kd” value [6, 7]?
**A.** 0.000855 s⁻¹

Reference: patent publication US20130244255A1, “ANTIBODIES DIRECTED TO GPNMB AND USES THEREOF” (priority 2006, published 2013)
